Target: T1, LXRβ (Homo sapiens, UniProt P55055)
T1 construct: Co-transfection expression plasmids, comprising full-length LXRα (pCMX-h LXRα[…] or LXRβ (pCMX-hLXRβ)); expressed in transfected cells; host or cells: CV-1 African Green Monkey Kidney Cells
T1 sequence (P55055 1-460): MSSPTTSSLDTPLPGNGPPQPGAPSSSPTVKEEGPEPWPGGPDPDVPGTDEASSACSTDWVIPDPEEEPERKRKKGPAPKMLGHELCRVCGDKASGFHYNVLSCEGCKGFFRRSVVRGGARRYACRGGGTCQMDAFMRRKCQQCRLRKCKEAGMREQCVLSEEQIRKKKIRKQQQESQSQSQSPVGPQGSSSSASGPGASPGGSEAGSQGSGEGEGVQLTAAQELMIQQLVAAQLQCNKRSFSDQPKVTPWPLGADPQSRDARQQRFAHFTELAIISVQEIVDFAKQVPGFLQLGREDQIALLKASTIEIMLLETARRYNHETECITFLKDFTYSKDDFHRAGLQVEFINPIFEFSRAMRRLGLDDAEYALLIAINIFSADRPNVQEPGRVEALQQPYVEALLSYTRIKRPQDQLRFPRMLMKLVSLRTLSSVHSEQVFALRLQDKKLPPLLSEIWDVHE
T1 sequence (P19793 1-462 partner): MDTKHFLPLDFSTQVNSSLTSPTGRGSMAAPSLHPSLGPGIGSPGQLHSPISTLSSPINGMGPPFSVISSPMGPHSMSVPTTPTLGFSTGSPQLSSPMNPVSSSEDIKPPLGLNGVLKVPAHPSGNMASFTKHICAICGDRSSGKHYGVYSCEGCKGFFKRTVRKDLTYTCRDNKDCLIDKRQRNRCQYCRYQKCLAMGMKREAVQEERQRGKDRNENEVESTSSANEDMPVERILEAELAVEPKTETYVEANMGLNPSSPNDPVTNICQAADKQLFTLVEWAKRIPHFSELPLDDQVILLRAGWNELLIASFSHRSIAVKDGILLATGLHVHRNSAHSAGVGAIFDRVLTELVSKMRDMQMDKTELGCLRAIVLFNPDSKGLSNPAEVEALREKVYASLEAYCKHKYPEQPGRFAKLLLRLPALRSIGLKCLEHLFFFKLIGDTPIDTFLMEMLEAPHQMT
Experiment: Co-transfection assay (LXRE luciferase reporter), LXRβ
Type: cell-based
Set-up: % Efficacy: concentration or dose not given beside the values
Conditions: for EC50: CV-1 cells transfected with pCMX-hLXRβ and LXREx1-Tk-Luciferase, 20 hours incubation; for Emax / % Efficacy: LXRβ co-transfection, relative to high control 1-(2,4-difluorobenzyl)-2-oxo-6-(4-phenoxyphenyl)-4-(trifluoromethyl)-1,2-dihydropyridine-3-carbonitrile; for Emax: read-out: % Efficacy
Summary of the method: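 CV-1 / pCMX-hLXRβ + LXREx1-Tk-Luc + β-gal; cpd 20 h, 37 °C, ≤0.5% DMSO; Steady-Glo luminescence. 11-pt ½-log curves, duplicate wells, sigmoidal fit → EC50; % efficacy vs high-control agonist, DMSO low control; mean of ≥2 expts.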

EC50 [nM] | Emax [%] | % Efficacy [%] | Compound
214 | 148 | – | Cc1nc(Cl)c(Cl)n1-c1ccc(-c2cccc(S(C)(=O)=O)c2)cc1-n1nncc1-c1ccc(OC(F)(F)F)cc1 [Example 151, 1-[4-(4,5-dichloro-2-methyl-1H-imidazol-1-yl)-3′-(methylsulfonyl)biphenyl-3-yl]-5-{4-[(trifluoromethyl)oxy]phenyl}-1H-1,2,3-triazole]
1210 | – | 19 | Cc1nc(-c2cc(-c3cc(F)c(CO)c(S(C)(=O)=O)c3)ccc2-n2cc(C(C)O)nc2C)c(-c2ccc3c(c2)OC(F)(F)O3)o1 (single isomer, unassigned) [Example 515, 1-(1-(3-(5-(2,2-difluorobenzo[d][1,3]dioxol-5-yl)-2-methyloxazol-4-yl)-3′-fluoro-4′-(hydroxymethyl)-5′-(methylsulfonyl)-[1,1′-biphenyl]-4-yl)-2-methyl-1H-imidazol-4-yl)ethanol]
280 | 50 | – | CCOc1ncc(-c2oc(C)nc2-c2cc(-c3ccc(C)c(S(C)(=O)=O)c3)ccc2-n2cc(C(F)(F)F)nc2C)cc1F [Example 473, 5-(6-ethoxy-5-fluoropyridn-3-yl)-2-methyl-4-(4′-methyl-4-(2-methyl-4-(trifluoromethyl)-1H-imidazol-1-yl)-3′-(methylsulfonyl)biphenyl-3-yl)oxazole]
166 | 68 | – | Cc1nc(C(F)F)cn1-c1ccc(-c2cc(F)c(CO)c(S(C)(=O)=O)c2)cc1-n1nncc1C(C)c1ccc(Cl)cc1 (centres unmarked) [Example 134, [3′-{5-[1-(4-chlorophenyl)ethyl]-1H-1,2,3-triazol-1-yl}-4′-[4-(difluoromethyl)-2-methyl-1H-imidazol-1-yl]-3-fluoro-5-(methylsulfonyl)biphenyl-4-yl]methanol]
550 | 64 | – | Cc1nc(-c2cc(-c3cccc(S(C)(=O)=O)c3)ccc2-n2cc(C(F)(F)F)nc2C)c(-c2ccc(F)c(OC(F)F)c2)o1 [Example 460, 5-(3-(difluoromethoxy)-4-fluorophenyl)-2-methyl-4-(4-(2-methyl-4-(trifluoromethyl)-1H-imidazol-1-yl)-3′-(methylsulfonyl)biphenyl-3-yl)oxazole]
1140 | 29 | – | Cc1nc(-c2cc(-c3cccc(S(C)(=O)=O)c3)ccc2-n2cc(CO)nc2C)c(-c2ccc3c(c2)OC(F)(F)O3)o1 [Example 369, (1-(3-(5-(2,2-difluorobenzo[d][1,3]dioxol-5-yl)-2-methyloxazol-4-yl)-3′-(methylsulfonyl)biphenyl-4-yl)-2-methyl-1H-imidazol-4-yl)methanol]
82 | 68 | – | Cc1nc(-c2cc(-c3cccc(S(C)(=O)=O)c3)ccc2-n2cc(C(F)(F)F)nc2C)c(-c2ccc(Cl)c(Cl)c2)o1 [Example 508, 5-(3,4-dichlorophenyl)-2-methyl-4-(4-(2-methyl-4-(trifluoromethyl)-1H-imidazol-1-yl)-3′-(methylsulfonyl)biphenyl-3-yl)oxazole]
45 | 96 | – | Cc1nc(-c2ccc3c(c2)OC(F)(F)O3)c(-c2cc(-c3ccc(CO)c(S(C)(=O)=O)c3)ccc2-n2cc(C(F)(F)F)nc2C)o1 [Example 616, (3′-(4-(2,2-difluorobenzo[d][1,3]dioxol-5-yl)-2-methyloxazol-5-yl)-4′-(2-methyl-4-(trifluoromethyl)-1H-imidazol-1-yl)-3-(methylsulfonyl)-[1,1′-biphenyl]-4-yl)methanol]
1940 | 57 | – | Cc1nc(C(F)(F)F)cn1-c1ccc(-c2cc(F)c(CO)c(S(C)(=O)=O)c2)c(Cl)c1-n1nncc1-c1ccc(Cl)cc1 [Example 102, {2′-chloro-3′-[5-(4-chlorophenyl)-1H-1,2,3-triazol-1-yl]-3-fluoro-5-(methylsulfonyl)-4′-[2-methyl-4-(trifluoromethyl)-1H-imidazol-1-yl]biphenyl-4-yl}methanol]
2080 | 62 | – | Cc1nc(-c2cc(-c3cccc(S(C)(=O)=O)c3)ccc2-n2cc(C(F)(F)F)nc2C)c(-c2cccnc2C2CC2)o1 [Example 390, 5-(2-cyclopropylpyridin-3-yl)-2-methyl-4-(4-(2-methyl-4-(trifluoromethyl)-1H-imidazol-1-yl)-3′-(methylsulfonyl)biphenyl-3-yl)oxazole]
83 | – | 55 | Cc1cc(-c2oc(C)nc2-c2cc(-c3cc(F)c(CO)c(S(C)(=O)=O)c3)ccc2-n2cc(C(F)(F)F)nc2C)cc(Cl)n1 [Example 452, (3′-(5-(2-chloro-6-methylpyridin-4-yl)-2-methyloxazol-4-yl)-3-fluoro-4′-(2-methyl-4-(trifluoromethyl)-1H-imidazol-1-yl)-5-(methylsulfonyl)biphenyl-4-yl)methanol]
36 | 91 | – | Cc1nc(-c2ccc(Cl)cc2Cl)c(-c2cc(-c3cc(F)c(CO)c(S(C)(=O)=O)c3)ccc2-n2cc(C(F)(F)F)nc2C)o1 [Example 609, (3′-(4-(2,4-dichlorophenyl)-2-methyloxazol-5-yl)-3-fluoro-4′-(2-methyl-4-(trifluoromethyl)-1H-imidazol-1-yl)-5-(methylsulfonyl)-[1,1′-biphenyl]-4-yl)methanol]
96 | 58 | – | Cc1nc(-c2cc(-c3cc(F)c(CO)c(S(C)(=O)=O)c3)ccc2-n2cc(C(F)(F)F)nc2C)c(-c2cc(F)cc(F)c2)o1 [Example 448, (3′-(5-(3,5-difluorophenyl)-2-methyloxazol-4-yl)-3-fluoro-4′-(2-methyl-4-(trifluoromethyl)-1H-imidazol-1-yl)-5-(methylsulfonyl)biphenyl-4-yl)methanol]
69 | 87 | – | Cc1nc(-c2cc(-c3ccc(C)c(S(C)(=O)=O)c3)ccc2-n2cc(C(F)(F)F)nc2C)c(-c2ccc(OC(F)F)c(F)c2)o1 [Example 435, 5-(4-(difluoromethoxy)-3-fluorophenyl)-2-methyl-4-(4′-methyl-4-(2-methyl-4-(trifluoromethyl)-1H-imidazol-1-yl)-3′-(methylsulfonyl)biphenyl-3-yl)oxazole]
4680 | 42 | – | COc1ncc(-c2oc(C)nc2-c2cc(-c3cccc(S(C)(=O)=O)c3)ccc2-n2cc(Cl)nc2C)cc1F [Example 464, 4-(4-(4-chloro-2-methyl-1H-imidazol-1-yl)-3′-(methylsulfonyl)biphenyl-3-yl)-5-(5-fluoro-6-methoxypyridin-3-yl)-2-methyloxazole]
1790 | 95 | – | CS(=O)(=O)c1cc(-c2cc(F)c(-n3cnc(C(F)(F)F)c3)c(-n3nncc3-c3ccc(OC(F)(F)F)cc3)c2)cc(F)c1CO [Example 189, [3,3′-difluoro-5-(methylsulfonyl)-4′-[4-(trifluoromethyl)-1H-imidazol-1-yl]-5′-(5-{4-[(trifluoromethyl)oxy]phenyl}-1H-1,2,3-triazol-1-yl)biphenyl-4-yl]methanol]
13 | 100 | – | CCc1nc(-c2cc(-c3cc(F)c(CO)c(S(C)(=O)=O)c3)ccc2-n2cc(C(F)(F)F)nc2C)c(-c2ccc(OC(F)(F)F)cc2)o1 [Example 556, (3′-(2-ethyl-5-(4-(trifluoromethoxy)phenyl)oxazol-4-yl)-3-fluoro-4′-(2-methyl-4-(trifluoromethyl)-1H-imidazol-1-yl)-5-(methylsulfonyl)-[1,1′-biphenyl]-4-yl)methanol]
127 | 81 | – | Cc1nc(C(F)(F)F)cn1-c1ccc(-c2cc(F)c(CO)c(S(C)(=O)=O)c2)cc1-n1nncc1-c1ccc(Cl)cc1Cl [Example 67, {3′-[5-(2,4-dichlorophenyl)-1H-1,2,3-triazol-1-yl]-3-fluoro-5-(methylsulfonyl)-4′-[2-methyl-4-(trifluoromcehyl)-1H-imidazol-1-yl]biphenyl-4-yl}methanol]
26 | 80 | – | Cc1cc(-c2cc(-c3cc(F)c(CO)c(S(C)(=O)=O)c3)ccc2-n2cc(C(F)(F)F)nc2C)n(-c2ccc(OC(F)F)cc2)n1 [Example 287, (3′-(1-(4-(difluoromethoxy)phenyl)-3-methyl-1H-pyrazol-5-yl)-3-fluoro-4′-(2-methyl-4-(trifluoromethyl)-1H-imidazol-1-yl)-5-(methylsulfonyl)biphenyl-4-yl)methanol]

— patent US9834542B2, “LXR modulators” (BRISTOL-MYERS SQUIBB COMPANY, priority 2013, dated 2017)
